Assay results reported in patent US6518289B1 (Pfizer, Inc., priority 1997, dated 2003).
Counter-ions that a name gives are not always drawn.

How the values were obtained:
[1] = system: carrageenan induced hyperalgesia; experiment: carrageenan induced hyperalgesia assay (Pain Model)
DBA2 audiogenic seizure = DBA2 audiogenic seizure model
[2] = 30 mg/kg orally in the rat, at 1 hour
[3] = 30 mg/kg orally in the rat, at 2 hours

With Cl.NCC1(Cc2noc(=O)[nH]2)CCCCC1 the “duration of antihyperalgesic effect compared with gabapentin” value ([1]; 30 mg/kg orally in the rat) was “antihyperalgesic effect of longer duration than gabapentin”, the “increase of paw withdrawal latency” value [1, 2] was 80.6% and the “increase of paw withdrawal latency” value [1, 3] was 76%. The “Pain Model % MPE 1 Hour” value [1] was 80.6 % MPE, the “Pain Model % MPE 2 Hours” value [1] was 76.1 % MPE and the “activity in the carrageenan induced hyperalgesia assay” value ([1]; result in words) was “active”. The “1 Hour (second column pair, group head not given)” value (DBA2 audiogenic seizure) was 20 and the “2 Hours (second column pair, group head not given)” value (DBA2 audiogenic seizure) was 40.
With CS(=O)(=O)NCCC1(CN)CCCCC1 (as salt: hydrochloride) [N-[2-1-Aminomethyl-cyclohexyl)-ethyl]-methanesulfonamide hydrochloride] the melting point was 196 to 199 °C.
For Cl.NCC1(Cc2noc(=S)[nH]2)CCCCC1 [3-(1-Aminomethyl-cyclohexylmethyl)-4H-[1,2,4]oxadiazole-5-thione; hydrochloride], the melting point was 210 to 212 °C, the “1 Hour (second column pair, group head not given)” value (DBA2 audiogenic seizure) was 0 and the “2 Hours (second column pair, group head not given)” value (DBA2 audiogenic seizure) was 0.
Cl.NCC1(Cc2nnn[nH]2)CCCCC1 [C-[1-(1H-Tetrazol-5-ylmethyl)-cyclohexyl)-methylamine hydrochloride] gave a protection (DBA2 audiogenic seizure; 10 mg/kg oral dosing, 1 hour postdose) of 60%, a protection (DBA2 audiogenic seizure; 10 mg/kg oral dosing, 2 hours postdose) of 100% and a protection (DBA2 audiogenic seizure; 10 mg/kg oral dosing, 4 hours postdose) of 100%. The protection (DBA2 audiogenic seizure; 10 mg/kg oral dosing, 6 hours postdose) was 80%, the “1 Hour (second column pair, group head not given)” value (DBA2 audiogenic seizure) was 60 and the “2 Hours (second column pair, group head not given)” value (DBA2 audiogenic seizure) was 100.
In the case of NCC1(CC(=O)O)CCCCC1 [Gabapentin, 1-(aminomethyl)-cyclohexaneacetic acid, reference compound], the “increase of paw withdrawal latency” value [1, 2] was 49.9%, the “increase of paw withdrawal latency” value [1, 3] was 19.9% and the “Pain Model % MPE 1 Hour” value [1] was 49.9 % MPE. For the same compound, the “Pain Model % MPE 2 Hours” value [1] was 19.9 % MPE, the “response in the DBA2 audiogenic seizure model” value (DBA2 audiogenic seizure; 10 mg/kg orally, result in words) was “no significant response” and the protection (DBA2 audiogenic seizure; 30 mg/kg, 2 hours postdose) was 100%. The “1 Hour (second column pair, group head not given)” value (DBA2 audiogenic seizure) was 100 and the “2 Hours (second column pair, group head not given)” value (DBA2 audiogenic seizure) was 100.
In the case of CS(=O)(=O)NCCC1(CN)CCCCC1 [N-[2-1-Aminomethyl-cyclohexyl)-ethyl]-methanesulfonamide hydrochloride], the “Pain Model % MPE 1 Hour” value [1] was 0.3 % MPE, the “Pain Model % MPE 2 Hours” value [1] was −0.9 % MPE and the “2 Hours (second column pair, group head not given)” value (DBA2 audiogenic seizure) was 0.
For CC(C)(C)C(=O)NCCC1(CN)CCCCC1 [N-[2-(1-Aminomethyl-cyclohexyl)-ethyl]-t-butylamide], the “Pain Model % MPE 1 Hour” value [1] was 1.6 % MPE, the “Pain Model % MPE 2 Hours” value [1] was −4.8 % MPE and the “2 Hours (second column pair, group head not given)” value (DBA2 audiogenic seizure) was 0.
